Results on 19 compounds are retold here after article PMC6270012, “Inhibitory Evaluation of Sulfonamide Chalcones on β-Secretase and Acylcholinesterase” (Molecules, 2012).

Holding throughout (format): biochemical
Assay [1] concerns the target T1, BACE1 (Homo sapiens, UniProt P56817).
T1 construct: purchased RD System, Inc. (WI, USA)
The assay is described as follows: BACE1 FRET peptide cleavage assay. The conditions noted are these: for Inhibition type: Lineweaver-Burk and Dixon plots. The procedure:
In this assay, BACE1-catalyzed proteolysis of a synthetic oligopeptide substituted with a fluorescent dye and a quencher leads to an increase in fluorescence by breaking the tether between the dye and the quencher. […] The assay was carried out according to the supplied manual with small modifications.
The assay was carried out according to the supplied manual with modifications. Briefly, a mixture of 10 μL of assay buffer (50 mM sodium acetate, pH 4.5), 10 μL of BACE1 (1.0 U/mL), 10 μL of the substrate (750 nM Rh-[…]-Quencher in 50 mM sodium acetate, pH 4.5), and 10 μL of sample dissolved in 50 mM ammonium bicarbonate buffer (pH 7.8) was incubated for 60 min at room temperature in the dark. The mixture was irradiated at 545 nm and the emission intensity at 590 nm was recorded. The inhibition ratio was obtained by the following equation: Inhibition (%) = [1 − {(S−S0)/(C−C0)}] × 100 where C was the fluorescence of the control (enzyme, buffer, and substrate) after 60 min of incubation, C0 was the fluorescence of control at zero time, S was the fluorescence of the tested samples (enzyme, sample solution, and substrate) after incubation, and S0 was the fluorescence of the tested samples at zero time. To allow for the quenching effect of the samples, the sample solution was added to the reaction mixture C, and any reduction in fluorescence by the sample was then investigated. All data are the mean of three experiments.

The target of the next assay is T2, equine serum BChE (Equus caballus, UniProt P81908).
T2 construct: 2 μL of equine serum BChE (0.05 U/mL) solution; from tissue; host or cells: equine serum
T2 sequence (P81908 whole entry): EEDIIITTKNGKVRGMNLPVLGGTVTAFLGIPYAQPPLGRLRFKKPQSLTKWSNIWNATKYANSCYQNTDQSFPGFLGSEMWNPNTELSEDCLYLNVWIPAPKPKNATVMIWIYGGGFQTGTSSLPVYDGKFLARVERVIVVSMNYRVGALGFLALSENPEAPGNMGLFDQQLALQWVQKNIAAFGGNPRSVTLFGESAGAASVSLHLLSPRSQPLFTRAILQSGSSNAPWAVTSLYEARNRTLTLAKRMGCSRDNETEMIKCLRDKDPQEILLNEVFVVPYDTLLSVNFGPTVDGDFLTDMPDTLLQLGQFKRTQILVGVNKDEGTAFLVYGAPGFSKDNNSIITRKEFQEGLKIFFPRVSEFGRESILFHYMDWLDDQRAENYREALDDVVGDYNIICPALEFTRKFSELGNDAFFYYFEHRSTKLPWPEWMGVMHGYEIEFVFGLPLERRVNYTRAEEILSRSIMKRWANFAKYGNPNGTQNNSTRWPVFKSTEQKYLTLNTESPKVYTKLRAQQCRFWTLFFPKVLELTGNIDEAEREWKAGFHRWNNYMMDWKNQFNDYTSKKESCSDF
The assay is described as follows: Cholinesterase inhibitory activity (Ellman), BChE. As to conditions: for Ki: read-out: Ki (inhibition constant) BChE. The method, then:
(§1) Cholinesterase was assayed according to standard procedures by following the hydrolysis of acetylthiocholine iodide (AtCh) or butyrylthiocholine iodide (BtCh) by monitoring formation of 5-thio-2-nitrobenzoate from 5-5'-dithiobis(2-nitrobenzoic acid) spectrometrically at 412 nm. The reaction mixture contained 100 mM sodium phosphate buffer (pH 8.0), 20 μL of test sample solution and either 2 μL of human erythrocyte AChE (0.25 U/mL) or 2 μL of equine serum BChE (0.05 U/mL) solution, which were mixed and incubated for 10 min at room temperature. Assays were then initiated with the addition of 30 μL 5-5'-dithiobis(2-nitrobenzoic acid) (3.3 mM) and, respectively, 20 μL of AtCh (1 mM), and 7 μL of BtCh (1 mM). All assays were performed in triplicate. […] Kinetic parameters were determined using the Lineweaver-Burk double-reciprocal-plot method at increasing concentration of substrates and inhibitors.
Background: In Ellman's method for cholinesterases, released thiocholine reacts with DTNB.

The target in a further assay is T3, human erythrocyte AChE (Homo sapiens, UniProt P22303).
T3 construct: 2 μL of human erythrocyte AChE (0.25 U/mL); from tissue; host or cells: human erythrocytes
T3 sequence (P22303 other isoform, or with tags, fused parts or gaps): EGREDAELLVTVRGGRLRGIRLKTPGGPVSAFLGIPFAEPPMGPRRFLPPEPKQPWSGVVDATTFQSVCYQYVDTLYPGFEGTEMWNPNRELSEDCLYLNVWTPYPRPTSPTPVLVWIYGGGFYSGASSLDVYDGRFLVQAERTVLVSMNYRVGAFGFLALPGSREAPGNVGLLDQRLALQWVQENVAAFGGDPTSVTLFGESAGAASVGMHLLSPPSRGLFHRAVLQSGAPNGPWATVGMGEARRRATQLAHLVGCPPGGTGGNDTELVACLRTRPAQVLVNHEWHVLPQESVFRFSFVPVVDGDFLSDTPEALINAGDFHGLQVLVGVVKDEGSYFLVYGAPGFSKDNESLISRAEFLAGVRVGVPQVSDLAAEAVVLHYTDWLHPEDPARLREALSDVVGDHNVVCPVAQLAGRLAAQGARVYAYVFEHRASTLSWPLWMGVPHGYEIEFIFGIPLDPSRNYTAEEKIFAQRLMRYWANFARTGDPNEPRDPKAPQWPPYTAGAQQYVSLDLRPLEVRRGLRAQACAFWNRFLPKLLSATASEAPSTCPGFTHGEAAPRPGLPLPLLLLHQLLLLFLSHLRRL
Nature of the assay: Cholinesterase inhibitory activity (Ellman), AChE. The conditions noted are these: for IC50: read-out: IC50 erythrocytes AChE; for Ki: read-out: Ki (inhibition constant) AChE. The procedure:
as §1

Assay [2] concerns the target T1, BACE1. The assay is described as follows: Slow and time-dependent inhibitory activity on BACE1 (progress curves). As to conditions: preincubation 0-60 min, progress curves 3,600 s. The procedure: To further investigate the inhibition mechanism, time dependence of BACE1inhibition by compound 5a was subsequently probed. The enzyme was preincubated with […] (between 0 and 60 min) and the residual enzyme activity was measured by calculating the initial velocity (Vi) of the hydrolysis (Figure 3B). Progress curves were continued to be run up for 3,600 s.
Slow and time-dependent assays and progress curves were carried out using 1 U/mL unit BACE1, and 10 μL substrate in 50 mM ammonium bicarbonate pH 7.8 at 37 °C. Enzyme activities were measured continuously for 3,600 s spectrophotometrically. To determine the kinetic parameters associated with time dependent inhibition of BACE1, progress curves for 3,600 s were obtained at one inhibitor concentration using fixed substrate concentrations. The data were analyzed using the nonlinear regression program [Sigma Plot (SPCC Inc., Chicago, IL, USA)].

[3] abbreviates: BACE1, Dixon plot, read-out: Ki (inhibition constant).
The mark [4] stands for this setting: BACE1 activity, mean of three experiments ± SD.

Broadly, the IC50 is the concentration at which inhibition is half-maximal. By Ki is commonly meant the equilibrium dissociation constant of an inhibitor or competing ligand from its target.

Each structure is given as a SMILES string. “Also recorded” adds a separate entry of the source. Read-outs that look alike come from different tables or passages of the source.

T1 sequence (P56817 46-501): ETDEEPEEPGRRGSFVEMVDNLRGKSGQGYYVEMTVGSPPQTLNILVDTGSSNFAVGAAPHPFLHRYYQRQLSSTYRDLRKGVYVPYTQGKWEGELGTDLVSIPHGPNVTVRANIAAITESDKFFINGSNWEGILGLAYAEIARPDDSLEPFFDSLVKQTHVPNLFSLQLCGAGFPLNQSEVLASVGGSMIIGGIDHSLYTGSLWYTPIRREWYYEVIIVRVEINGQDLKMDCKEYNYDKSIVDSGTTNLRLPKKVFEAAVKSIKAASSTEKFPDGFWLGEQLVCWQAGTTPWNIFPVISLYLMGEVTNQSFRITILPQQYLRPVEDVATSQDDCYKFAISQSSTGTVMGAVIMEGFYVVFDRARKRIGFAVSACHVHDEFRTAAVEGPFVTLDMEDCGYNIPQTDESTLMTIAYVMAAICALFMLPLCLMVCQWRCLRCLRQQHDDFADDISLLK

The compound `O=c1c(O)c(-c2ccc(O)cc2O)oc2cc(O)cc(O)c12` [Morin, reference compound] returned a 50% inhibitory concentration (IC50) at BACE1 [1] (BACE1) of 12.3 µM.
Take `O=C(/C=C/c1ccc(O)cc1)c1ccc(NS(=O)(=O)c2ccccc2)cc1` [Compound 4c, 4′-(Benzenesulfonamide)-4-hydroxychalcone]: the IC50 at equine serum BChE was 75 µM; on human erythrocyte AChE, 83.3 µM; against BACE1 [1] (setting [4]), 6.28 ± 0.7 µM. Also, the inhibition constant Ki at equine serum BChE was 72.2 µM; at human erythrocyte AChE it was 80.3 µM; on BACE1 [1] (setting [3]), 5.83 µM.
`O=C(/C=C/c1ccc(O)cc1)c1ccc(NS(=O)(=O)c2ccc([N+](=O)[O-])cc2)cc1` [Compound 4g, 4′-(4-Nitrobenzenesulfonamide)-4-hydroxychalcone]: on BACE1 [1] (setting [3]), the Ki came to 94.8 µM. The compound also registered an IC50 on BACE1 [1] (setting [4]) of 107 ± 2.7 µM.
For `O=C(/C=C/c1ccc(O)cc1)c1ccc(NS(=O)(=O)c2ccc(O)cc2)cc1` [Compound 4d, 4′-(4-Hydroxybenzenesulfonamide)-4-hydroxychalcone], in that order: 1.49 µM and 2.88 ± 0.5 µM.
With `Cc1ccc(S(=O)(=O)Nc2ccc(C(=O)/C=C/c3ccccc3)cc2)cc1` [Compound 4b, 4′-(4-Toluenesulfonamido)-chalcone], the IC50 against BACE1 [1] (setting [4]) came to 169 ± 2.4 µM.
As for `Cc1ccc(S(=O)(=O)Nc2ccc(C(=O)/C=C/c3ccc(O)cc3)cc2)cc1` [Compound 4a, 4'-(4-Toluenesulfonamide)-4-hydroxychalcone], the IC50 against equine serum BChE was found to be 47.4 µM; on human erythrocyte AChE, 56.1 µM; at BACE1 [1] (setting [4]) it was 1.44 ± 0.2 µM. For the same compound, the Ki was found to be 25.3 µM on equine serum BChE, 40.4 µM on human erythrocyte AChE and 0.56 µM at BACE1 [1] (setting [3]). Further, on BACE1 [1] (BACE1), the Inhibition type result was “mixed type”.
Turning to `Cc1ccc(S(=O)(=O)Nc2ccc(C(=O)/C=C/c3ccc(O)c(O)c3)cc2)cc1` [Compound 5a, 4'-(4-Toluenesulfonamide)-3,4-dihydroxychalcone], the IC50 at equine serum BChE was 19.5 µM; on human erythrocyte AChE, 75.9 µM; on BACE1 [1] (setting [4]), 0.21 ± 0.02 µM. Besides, the Ki at equine serum BChE turned out to be 9.8 µM; on human erythrocyte AChE, 55.8 µM; on BACE1 [1] (BACE1, read-out: Ki), 0.07 µM. Besides, on BACE1 [2], the “Time dependence of inhibition” value is recorded as “slow binding inhibitor; also recorded: time-dependent”. At BACE1 [1] (BACE1), the Inhibition type entry is listed as “mixed inhibitor”. Moreover, the Reversibility of inhibition result on BACE1 [1] (BACE1, residual activity versus enzyme concentration) was “reversible inhibitor”.
Take `Cc1ccc(S(=O)(=O)Nc2ccc(C(=O)/C=C/c3ccc(O)cc3O)cc2)cc1` [Compound 6, 4'-(4-Toluenesulfonamide)-2,4-dihydroxychalcone]: at BACE1 [1] (setting [3]), the Ki turned out to be 1.89 µM. The same compound showed an IC50 at BACE1 [1] (setting [4]) of 3.6 ± 0.3 µM.
`COc1ccc(S(=O)(=O)Nc2ccc(C(=O)/C=C/c3ccc(O)cc3)cc2)cc1` [Compound 4e, 4′-(4-Methoxybenzenesulfonamido)-4-hydroxychalcone]: the Ki on BACE1 [1] (setting [3]) worked out at 75.2 µM. The compound further had an IC50 on BACE1 [1] (setting [4]) of 79.3 ± 2.3 µM.
As for `Nc1ccc(C(=O)/C=C/c2ccc(O)cc2)cc1` [Compound 1, 4′-Amino-4-hydroxychalcone], on BACE1 [1] (setting [3]), the Ki was found to be 43.8 µM. Also, the midpoint of inhibition against BACE1 [1] (setting [4]), the IC50, lay at 48.2 ± 1.2 µM.
Regarding `O=C(/C=C/c1ccc(O)cc1)c1ccc(NS(=O)(=O)c2ccc(F)cc2)cc1` [Compound 4h, 4′-(4-Fluorobenzenesulfonamide)-4-hydroxychalcone], on BACE1 [1] (setting [4]), 120 ± 3.2 µM corresponded to half-maximal inhibition (IC50).
Regarding `O=C(/C=C/c1ccc(O)c(O)c1)c1ccc(NS(=O)(=O)c2ccc([N+](=O)[O-])cc2)cc1` [Compound 5e, 4′-(4-Nitrobenzenesulfonamide)-3,4-dihydroxychalcone], the Ki on BACE1 [1] (setting [3]) came to 92.4 µM. Moreover, it took 101 ± 2.4 µM to reach half-maximal inhibition against BACE1 [1] (setting [4]) (IC50).
The like results for `Nc1ccc(S(=O)(=O)Nc2ccc(C(=O)/C=C/c3ccc(O)c(O)c3)cc2)cc1` [Compound 5d, 4′-(4-Aminobenzenesulfonamide)-3,4-dihydroxychalcone] were, in that order, 0.69 µM and 0.69 ± 0.04 µM.
With `CC(=O)Nc1ccc(C(=O)/C=C/c2ccc(O)cc2)cc1` [Compound 3, 4′-Acetamido-4-hydroxychalcone], the IC50 against BACE1 [1] (setting [4]) was above 200 µM. The “BACE1 inhibition” value on BACE1 [1] (at concentrations as high as 200 μM) was “inactive”.
Consider `O=C(/C=C/c1ccc(O)c(O)c1)c1ccc(NS(=O)(=O)c2ccc(O)cc2)cc1` [Compound 5c, 4′-(4-Hydroxybenzenesulfonamide)-3,4-hydroxychalcone], for which the figures for the IC50 against equine serum BChE, on human erythrocyte AChE and at BACE1 [1] (setting [4]) were 24.7 µM, 57.4 µM and 0.62 ± 0.03 µM, respectively. The Ki was found to be 26.6 µM on equine serum BChE, 47.6 µM at human erythrocyte AChE and 0.56 µM at BACE1 [1] (setting [3]).
With `O=C(/C=C/c1ccc(O)c(O)c1)c1ccc(NS(=O)(=O)c2ccccc2)cc1` [Compound 5b, 4′-(Benzenesulfonamide)-3,4-dihydroxychalcone], the IC50 was 79 µM against equine serum BChE, 75.4 µM at human erythrocyte AChE and 4.59 ± 1.5 µM against BACE1 [1] (setting [4]). In addition, the results for the Ki on equine serum BChE, on human erythrocyte AChE and at BACE1 [1] (setting [3]) were 63.5 µM, 57.2 µM and 3.78 µM, respectively.
For `Nc1ccc(C(=O)/C=C/c2ccc(O)c(O)c2)cc1` [Compound 2, 4′-Amino-3,4-dihydroxychalcone], the Ki on BACE1 [1] (setting [3]) was determined as 10.5 µM. In addition, on BACE1 [1] (setting [4]), half-maximal inhibition (IC50) required 17.7 ± 0.8 µM.
Turning to `O=C(/C=C/c1ccc(O)c(O)c1)c1ccc(NS(=O)(=O)c2ccc(F)cc2)cc1` [Compound 5f, 4′-(4-Fluorobenzenesulfonamide)-3,4-dihydroxychalcone], at BACE1 [1] (setting [3]), the Ki turned out to be 10.8 µM. For the same compound, at BACE1 [1] (setting [4]), the IC50 is 8.95 ± 1 µM.
Regarding `Nc1ccc(S(=O)(=O)Nc2ccc(C(=O)/C=C/c3ccc(O)cc3)cc2)cc1` [Compound 4f, 4′-(4-Aminobenzenesulfonamide)-4-hydroxychalcone], the IC50 worked out at 34.3 µM at equine serum BChE, 95.8 µM on human erythrocyte AChE and 5.58 ± 1.4 µM against BACE1 [1] (setting [4]). The Ki amounted to 19 µM at equine serum BChE, 61.5 µM at human erythrocyte AChE and 4.19 µM at BACE1 [1] (setting [3]).
